Measurements as given in patent US12629370B2, “Treatment of prostate cancer” (Sumitomo Pharma Co., Ltd., priority 2016, dated 2026).
“Also recorded” adds a separate entry of the source.

Tests used:
serum testosterone = test: Example 8: serum testosterone in men with advanced prostate cancer, versus leuprolide acetate; type: in vivo, human; details: for Testosterone Mean (Std Dev) / Testosterone Median / Median testosterone: Leuprorelin Q12W
Excerpt: Eligible men were aged ≥18 years with a histologically confirmed diagnosis of prostate adenocarcinoma, and were candidates for ADT for the management of hormone-sensitive prostate cancer with one of the following clinical disease states: advanced localized disease not suitable for primary surgical or radiation therapy; evidence of PSA biochemical or clinical relapse following primary surgery or radiation therapy of curative intent; or newly diagnosed metastatic disease that was asymptomatic and without visceral involvement. […] Patients with advanced, localized MON1 or M1 disease with clinically significant symptoms or visceral involvement, who required immediate GnRH therapy, chemotherapy, or radiation therapy were not eligible for the trial.
Serum testosterone levels were measured at each visit.

PSA = test: Example 8: PSA response; type: in vivo, human
Excerpt: Eligible men were aged ≥18 years with a histologically confirmed diagnosis of prostate adenocarcinoma, and were candidates for ADT for the management of hormone-sensitive prostate cancer with one of the following clinical disease states: advanced localized disease not suitable for primary surgical or radiation therapy; evidence of PSA biochemical or clinical relapse following primary surgery or radiation therapy of curative intent; or newly diagnosed metastatic disease that was asymptomatic and without visceral involvement. Additional inclusion criteria at screening included: eugonadal serum testosterone >150 ng/dl (5.2 nmol/L); serum PSA concentration >2 ng/ml (or, when applicable, >0.2 ng/ml following radical prostatectomy or >2 ng/mL above the post-radiotherapy nadir following radiotherapy); body mass index ≥18.0 at screening and/or baseline (i.e., the subject's BMI prior to treatment commencing); and Eastern Cooperative Oncology Group (ECOG) performance status of 0 or 1. Patients with advanced, localized MON1 or M1 disease with clinically significant symptoms or visceral involvement, who required immediate GnRH therapy, chemotherapy, or radiation therapy were not eligible for the trial.
PSA levels were measured at each visit.

FSH = test: Example 8: FSH levels; type: in vivo, human; details: for FSH Mean (Std Dev) / FSH Median: Leuprorelin Q12W;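 on all read-outs here: FSH determined at every study visit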
[1] = system: patients with advanced prostate cancer; test: Example 8: quality of life, Aging Male Survey (AMS); type: in vivo, human; details: Leuprorelin Q12W
Protocol: Quality of life (QoL) was assessed throughout the study and the follow-up period. The 25-item Prostate Cancer Module of the European Organization for Research and Treatment of Cancer Quality of Life Questionnaire (EORTC QLQ-PR25), Aging Male Survey (AMS), and core 30-item EORTC Quality of Life Questionnaire (EORTC QLQ-C30) were completed at screening, day 1 of weeks 5, 13, 25, 37, and 49, and, if applicable, at the follow-up visits.

[2] = system: patients with advanced prostate cancer; test: Example 8: treatment-emergent adverse events (safety population)
Protocol: The core tablets were coated with a film coating comprising hypromellose 2910 (21.36 mg), titanium dioxide (2.4 mg), and red ferric oxide (0.06 mg).
For patients receiving leuprolide acetate (leuprorelin), on-treatment study visits occurred at baseline (day 1, week 1), day 1 of weeks 2, 3, and 5, and then every 4 weeks until week 25, and then at 12 week intervals (week 37 and 49). Patients on leuprorelin received their final injection at week 37, day 1, and the week 49, day 1 visit was considered the end of leuprorelin exposure. Patients receiving leuprorelin at visits at 16 (EOT), 20 (follow-up visit), and 24 (EOS) weeks after the last leuprorelin injection.
Efficacy and safety analyses were conducted using a safety population (received ≥1 dose of study drug). […] Safety was assessed by recording the incidence, severity, and types of treatment-emergent adverse events; by physical examination (including slit lamp examination of the anterior eye); and by evaluating changes from baseline in weight, vital signs, 12-lead electrocardiogram (ECG), and clinical laboratory parameters. […] Adverse events were coded using the Medical Dictionary for Regulatory Activities version 19.0 and graded according to National Cancer Institute Common Terminology Criteria version 4.03 (Tables 7 and 8). Safety-related haematology, chemistry, and urinalysis measurements were taken at each study visit and analysed at a central laboratory (LabCorp). Phospholipidosis was assessed as part of the safety assessments.

## CCNC(=O)[C@@H]1CCCN1C(=O)[C@H](CCCNC(=N)N)NC(=O)[C@H](CC(C)C)NC(=O)[C@@H](CC(C)C)NC(=O)[C@H](Cc1ccc(O)cc1)NC(=O)[C@H](CO)NC(=O)[C@H](Cc1c[nH]c2ccccc12)NC(=O)[C@H](Cc1c[nH]cn1)NC(=O)[C@@H]1CCC(=O)N1 [Leuprorelin, leuprolide acetate]
Serum testosterone; Baseline
  Testosterone Mean (Std Dev): 11.363 (5,0204) nmol/L
  Testosterone Median: 11.120 nmol/L
Serum testosterone; EOS
  Median testosterone: 13.5 ng/dL
Serum testosterone; EOT
  Median testosterone: 9.8 ng/dL
Serum testosterone; End of Study
  Testosterone Mean (Std Dev): 1.695 (3.0345) nmol/L
  Testosterone Median: 0.470 nmol/L
Serum testosterone; End of Treatment
  Testosterone Mean (Std Dev): 0.641 (0.9616) nmol/L
  Testosterone Median: 0.340 nmol/L
Serum testosterone; Follow-Up
  Testosterone Mean (Std Dev): 0.992 (2.2948) nmol/L
  Testosterone Median: 0.340 nmol/L
Serum testosterone; Follow-up visit
  Median testosterone: 9.8 ng/dL
Serum testosterone; Week 49, Day 1
  Testosterone Mean (Std Dev): 0.478 (0.6313) nmol/L
  Testosterone Median: 0.300 nmol/L
Serum testosterone; leuprolide acetate 22.5 mg SC
  course of serum testosterone levels: rose during the first 1-2 weeks of therapy then declined to castration levels by Week 5 Day 1; also recorded: rose during the first 1 to 2 weeks of therapy then declined to castrate levels by Week 5 Day 1
PSA; Leuprolide Q12W
  Median time from first dose to PSA nadir: 20.5 Weeks
PSA; after 4 weeks of treatment
  patients with ≥50% serum PSA reduction: 20%
  patients with ≥90% serum PSA reduction: 0%
FSH; Baseline
  FSH Mean (Std Dev): 19.688 (19.1894) IU/L
  FSH Median: 14.500 IU/L
FSH; Week 2, Day 1
  FSH Mean (Std Dev): 7.650 (5.4542) IU/L
  FSH Median: 5.150 IU/L
FSH; Week 5, Day 1
  FSH Mean (Std Dev): 2.946 (1.4428) IU/L
  FSH Median: 2.550 IU/L
FSH; Week 13, Day 1
  FSH Mean (Std Dev): 4.625 (2.5594) IU/L
  FSH Median: 3.600 IU/L
FSH; Week 25, Day 1
  FSH Mean (Std Dev): 5.043 (2.8221) IU/L
  FSH Median: 4.400 IU/L
FSH; Week 49, Day 1
  FSH Mean (Std Dev): 5.145 (2.8201) IU/L
  FSH Median: 4.250 IU/L
FSH; after 48 weeks of treatment
  median FSH: ~4.2 mIU/mL
[1]; Baseline
  AMS total score, mean: 28.3
[1]; EOS
  AMS total score after treatment, mean (95% CI) percent change from baseline: 49.9 (21.0-78.7) %
[1]; EOT
  AMS total score after treatment, mean (95% CI) percent change from baseline: 61.0 (22.7-99.2) %
[1]; Follow-up
  AMS total score after treatment, mean (95% CI) percent change from baseline: 53.8 (18.2-89.4) %
[1]; W5, D1
  AMS total score, mean percent change from baseline: 10.1%
[1]; W13, D1
  AMS total score, mean percent change from baseline: 21.9%
[1]; W25, D1
  AMS total score, mean percent change from baseline: 47.0%
[1]; W37, D1
  AMS total score, mean percent change from baseline: 49.4%
[1]; W49, D1
  AMS total score, mean percent change from baseline: 60.0%
[2]; Leuprorelin Q12W
  Cerebral haemorrhage, Grade ≥3: 0 n (%)
  Cerebrovascular accident, Grade ≥3: 0 n (%)
  Death (Table 7): 1 (4) n (%)
  Death, Grade ≥3 (Table 8): 0 n (%)
  Musculoskeletal pain, Grade ≥3: 0 n (%)
  Sudden death, Grade ≥3: 0 n (%)
[2]; in vivo
  Acute coronary syndrome, Grade ≥3: 0 n (%)
  Adverse event resulting in study drug discontinuation: 0 n (%)
  Alanine aminotransferase increased, Grade ≥3: 0 n (%)
  Any adverse event: 23 (96) n (%)
  Arthralgia, Grade ≥3 (Table 8): 0 n (%)
  Aspartate aminotransferase increased, Grade ≥3: 0 n (%)
  Atrial flutter, Grade ≥3: 0 n (%)
  Bladder cancer, Grade ≥3: 0 n (%)
  Cervical vertebral fracture, Grade ≥3: 0 n (%)
  Diabetes mellitus, Grade ≥3: 1 (4) n (%)
  Drug-related adverse event: 18 (75) n (%)
  Fatigue, Grade ≥3 (Table 8): 0 n (%)
  Gamma-glutamyltransferase increased, Grade ≥3: 0 n (%)
  Grade ≥3 adverse event (Table 7): 2 (8) n (%)
  Hypercalcaemia, Grade ≥3: 0 n (%)
  Hypertension, Grade ≥3: 0 n (%)
  Hypotension, Grade ≥3: 0 n (%)
  Inguinal hernia, Grade ≥3: 0 n (%)
  Joint dislocation, Grade ≥3: 0 n (%)
  Metastases to bone, Grade ≥3: 0 n (%)
  Myocardial infarction, Grade ≥3: 1 (4) n (%)
  Non-cardiac chest pain, Grade ≥3: 0 n (%)
  Osteoarthritis, Grade ≥3: 0 n (%)
  Patients with at least 1 Grade ≥3 adverse events (Table 8): 2 (8) n (%)
  Procedural pain, Grade ≥3: 0 n (%)
  Sepsis, Grade ≥3: 0 n (%)
  Serious adverse event: 2 (8) n (%)
  Syncope, Grade ≥3: 0 n (%)
  Transient ischaemic attack, Grade ≥3: 0 n (%)
  Urinary tract infection, Grade ≥3: 0 n (%)
  hot flush (most common adverse event), patients: 15 (63%) n (%)
